Molecular target: T1, hCRTH2 receptor (Homo sapiens, UniProt Q9Y5Y4)
T1 construct: expressed in transfected cells; host or cells: HEK293
T1 sequence (Q9Y5Y4 1-395): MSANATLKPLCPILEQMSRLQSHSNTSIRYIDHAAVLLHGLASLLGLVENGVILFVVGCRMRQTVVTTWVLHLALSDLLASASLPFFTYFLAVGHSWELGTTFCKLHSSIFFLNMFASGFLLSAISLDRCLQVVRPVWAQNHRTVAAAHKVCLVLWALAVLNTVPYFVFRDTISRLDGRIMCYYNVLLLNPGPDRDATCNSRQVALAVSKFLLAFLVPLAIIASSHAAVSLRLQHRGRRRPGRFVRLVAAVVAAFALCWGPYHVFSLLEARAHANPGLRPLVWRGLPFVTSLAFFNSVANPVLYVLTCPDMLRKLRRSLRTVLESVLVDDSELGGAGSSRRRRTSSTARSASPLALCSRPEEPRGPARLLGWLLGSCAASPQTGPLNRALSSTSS
Assay: Radioligand displacement assay (3H-PGD2) on hCRTH2 receptor membranes
Type: binding
Conditions: antagonistic activity
Protocol: First, recombinant HEK293-hCRTH2 cells were detached from culture plates into 5 ml buffer A/plate (Buffer A: 5 mM Tris, 1 mM MgCl2-6H2O pH=7.4) using a rubber policeman. Cells were then transferred into centrifugation tubes and centrifuged for 5 min at 400 g. The cell pellet was resuspended in the same buffer and tubes were frozen at −80° C. Cells were thawed and membrane fragments were generated by homogenization using a polytron homogenizer (30 seconds). The membrane fragments were then centrifuged at 3000 g for 20 minutes and resuspended in buffer C (Buffer C: 75 mM Tris, 25 mM MgCl2, 250 mM Saccharose pH 7.4). Aliquots of membrane fragments were stored at −20° C.
Binding assay was performed in a final assay volume of 250 μl. First, 25 μl of test compound, previously diluted in Binding-Buffer (Binding-Buffer: 50 mM Tris-Base, 100 mM NaCl, 1 mM EDTA, 0.1% BSA (protease free), 0.01% NaN3, 10 mM MnCl2, pH 7.0) was placed into each well. After addition of 75 μl Binding-Buffer, 50 μl of the radioligand ^3H-PGD2 (at 2.5 nM (220.000 dpm/well) from ANAWA ART0662) was added to each well. Binding assay was started by addition of 100 μl CRTH2 membrane fragments, reaching a final concentration of 20 μg/well. For non-specific binding, PGD2 was added to the reaction mixture to […] final concentration.
This assay mix was incubated for 90 minutes at room temperature and then filtered through a GF/C filter 96-well plate which was pre-soaked for 3 hours in 0.5% polyethyleneimine (PEI). The filter-wells were washed three times with ice cold Binding-Buffer. Then, 40 μl of Microscint-40 (Packard) was added to each well and the retained radioactivity quantified in a Topcount (Packard).

[1] = 3H-PGD2 radioligand displacement, HEK293-hCRTH2 membranes
[2] = 3H-PGD2 displacement on HEK293-hCRTH2 membrane fragments

In the case of `COc1ccc([C@@H]2C[C@H]2C(=O)N2CCc3ccccc3C2c2cc(Cl)ccc2OCC(=O)O)cc1` (mixture of isomers) [Example 417], the IC50 [1] is reported as 187 nM.
Compound `O=C(O)COc1ccc(Cl)cc1C1c2ccccc2CCN1C(=O)NCCc1ccccc1` (racemic) [Example 493] has an IC50 [1] of 22.5 nM.
Work on `CCn1c(C)c(CCC(=O)N2CCc3ccccc3C2c2cc(F)ccc2OCC(=O)O)c2ccccc21` (racemic) [Example 52, (±)-(2-{2-[3-(1-Ethyl-2-methyl-1H-indol-3-yl)-propionyl]-1,2,3,4-tetrahydro-isoquinolin-1-yl}-4-fluoro-phenoxy)-acetic acid] yielded an IC50 [2] of 600 nM.
For `O=C(O)COc1ccc(Cl)cc1[C@@H]1c2ccc(F)cc2CCN1C(=O)CCn1ncc2cccc(F)c21` [Example 403], the IC50 [1] was 79.1 nM.
`COc1ccccc1CNC(=S)N1CCc2ccccc2C1c1cc(Cl)ccc1OCC(=O)O` (racemic) [Example 225, (±)-{4-Chloro-2-[2-(2-methoxy-benzylthiocarbamoyl)-1,2,3,4-tetrahydro-isoquinolin-1-yl]-phenoxy}-acetic acid] gave an IC50 [2] of 76.5 nM.
For `Cc1conc1COC(=O)N1CCc2ccccc2[C@H]1c1cc(Cl)ccc1OCC(=O)O` [Example 280, (S)-1-(2-Carboxymethoxy-5-chloro-phenyl)-3,4-dihydro-1H-isoquinoline-2-carboxylic acid 4-methyl-isoxazol-3-ylmethyl ester], the IC50 [2] was 0.35 nM.
`O=C(O)COc1ccc(F)cc1C1c2ccccc2CCN1C(=O)OCc1ccccc1Cl` (racemic) [Example 165] showed an IC50 [2] of 5 nM.
`O=C(O)COc1ccc(Cl)cc1C1c2ccccc2CCN1C(=O)COc1cccc2cccnc12` (racemic) [Example 411] gave an IC50 [1] of 25.7 nM.
For `O=C(O)COc1ccc(Cl)cc1[C@@H]1c2ccc(F)c(F)c2CCN1C(=O)OCc1cnccn1` [Example 308, (S)-1-(2-Carboxymethoxy-5-chloro-phenyl)-5,6-difluoro-3,4-dihydro-1H-isoquinoline-2-carboxylic acid pyrazin-2-ylmethyl ester], the IC50 [1] was 1.69 nM.
`O=C(O)COc1cc(F)c(F)cc1C1c2ccccc2CCN1C(=O)OCc1ccccc1` (racemic) [Example 6, (±)-1-(2-Carboxymethoxy-4,5-difluoro-phenyl)-3,4-dihydro-1H-isoquinoline-2-carboxylic acid benzyl ester] was tested, and the IC50 [2] was 30.1 nM.
In the case of `Cc1ccccc1C1CC1C(=O)N1CCc2ccccc2C1c1cc(Cl)ccc1OCC(=O)O` (single isomer, unassigned) [Example 154, (±)-{4-Chloro-2-[2-((trans)-2-o-tolyl-cyclopropanecarbonyl)-1,2,3,4-tetrahydro-isoquinolin-1-yl]-phenoxy}-acetic acid (diastereosiomer 2)], the IC50 [2] is reported as 4.83 nM.
`Cc1cn(CCC(=O)N2CCc3ccccc3C2c2cc(Cl)ccc2OCC(=O)O)c2ccccc12` (racemic) [Example 447] showed an IC50 [1] of 13.9 nM.
Compound `CCn1c(C)c(CCC(=O)N2Cc3ccccc3C2c2cc(Cl)ccc2OCC(=O)O)c2ccccc21` (racemic) [Example 508] has an IC50 [1] of 127 nM.
For `O=C(O)COc1ccc(Cl)cc1C1c2ccccc2CCN1C(=O)CCN1C(=O)CSC1c1ccccc1` (stereo not drawn) [Example 84, (4-Chloro-2-{2-[3-(4-oxo-2-phenyl-thiazolidin-3-yl)-propionyl]-1,2,3,4-tetrahydro-isoquinolin-1-yl}-phenoxy)-acetic acid], the IC50 [2] was 28.4 nM.
In the case of `O=C(O)COc1ccc(Cl)cc1C1c2ccccc2CN1C(=O)NCc1ccc(F)cc1` (racemic) [Example 554], the IC50 [1] is reported as 25.7 nM.
`O=C(O)COc1ccc(Cl)cc1C1c2ccccc2CCN1C(=O)C1CCc2ccccc2C1` (stereo not drawn) [Example 77, {4-Chloro-2-[2-(1,2,3,4-tetrahydro-naphthalene-2-carbonyl)-1,2,3,4-tetrahydro-isoquinolin-1-yl]-phenoxy}-acetic acid] gave an IC50 [2] of 134 nM.
In the case of `O=C(O)COc1ccc(Cl)cc1[C@@H]1c2ccccc2CCN1C(=O)OCn1ncc2ccccc21` [Example 297, (S)-1-(2-Carboxymethoxy-5-chloro-phenyl)-3,4-dihydro-1H-isoquinoline-2-carboxylic acid indazol-1-ylmethyl ester], the IC50 [1] is reported as 1.06 nM.
In the case of `O=C(O)COc1ccc(Cl)cc1C1c2cccc(F)c2CCN1C(=O)OCc1ccccc1` (racemic) [Example 18, (±)-1-(2-Carboxymethoxy-5-chloro-phenyl)-5-fluoro-3,4-dihydro-1H-isoquinoline-2-carboxylic acid benzyl ester], the IC50 [2] is reported as 5.43 nM.
`O=C(O)COc1ccc(Cl)cc1C1c2ccccc2CCN1C(=O)CCn1cnc2ccccc21` (racemic) [Example 451] was tested, and the IC50 [1] was 64.1 nM.
With `Cc1ncccc1OCC(=O)N1CCc2ccccc2C1c1cc(Cl)ccc1OCC(=O)O` (racemic) [Example 469] the IC50 [1] was 132 nM.
`Cc1nn(CCC(=O)N2Cc3ccccc3C2c2cc(Cl)ccc2OCC(=O)O)c2cccc(Cl)c12` (single isomer, unassigned) [Example 539] was tested, and the IC50 [1] was 235 nM.
Compound `O=C(O)COc1ccc(Cl)cc1C1c2ccccc2CCN1C(=O)OCc1ccc(C(F)(F)F)cc1` (racemic) [Example 363] has an IC50 [1] of 34.1 nM.
Compound `O=C(O)COc1ccc(Cl)cc1C1c2ccccc2CN1C(=O)CCn1ncc2ccc(F)cc21` (single isomer, unassigned) [Example 534, (4-Chloro-2-{2-[3-(6-fluoro-indazol-1-yl)-propionyl]-2,3-dihydro-1H-isoindol-1-yl}-phenoxy)-acetic acid] has an IC50 [1] of 12.9 nM.
With `O=C(O)COc1ccc(F)cc1C1c2ccccc2CCN1C(=O)COc1ccccc1F` (racemic) [Example 148, (±)-(4-Fluoro-2-{2-[2-(2-fluoro-phenoxy)-acetyl]-1,2,3,4-tetrahydro-isoquinolin-1-yl}-phenoxy)-acetic acid] the IC50 [2] was 132 nM.
`O=C(O)COc1ccc(Br)cc1C1c2ccccc2CCN1C(=O)OCc1ccccc1` (racemic) [Example 4, (±)-1-(5-Bromo-2-carboxymethoxy-phenyl)-3,4-dihydro-1H-isoquinoline-2-carboxylic acid benzyl ester] gave an IC50 [2] of 10.5 nM.
With `Cc1ccccc1COC(=O)N1CCc2ccccc2C1c1cc(Cl)ccc1OCC(=O)O` (racemic) [Example 235] the IC50 [2] was 5.62 nM.
`Cc1nc(COC(=O)N2CCc3c(ccc(F)c3F)[C@H]2c2cc(Cl)ccc2OCC(=O)O)cs1` [Example 304, (S)-1-(2-Carboxymethoxy-5-chloro-phenyl)-5,6-difluoro-3,4-dihydro-1H-isoquinoline-2-carboxylic acid 2-methyl-thiazol-4-ylmethyl ester] was tested, and the IC50 [1] was 5.39 nM.
Work on `CN(CC(=O)N1CCc2ccccc2C1c1cc(F)ccc1OCC(=O)O)S(=O)(=O)c1cccc(F)c1` (racemic) [Example 211] yielded an IC50 [2] of 261 nM.
In the case of `O=C(O)COc1ccc(Cl)cc1[C@@H]1c2ccc(F)cc2CCN1C(=O)OCc1ccccc1F` [Example 352, (S)-1-(2-Carboxymethoxy-5-chloro-phenyl)-6-fluoro-3,4-dihydro-1H-isoquinoline-2-carboxylic acid 2-fluoro-benzyl ester], the IC50 [1] is reported as 1.87 nM.
For `Cc1cc(C)n(CCOC(=O)N2CCc3cc(F)ccc3[C@H]2c2cc(Cl)ccc2OCC(=O)O)n1` [Example 341, (S)-1-(2-Carboxymethoxy-5-chloro-phenyl)-6-fluoro-3,4-dihydro-1H-isoquinoline-2-carboxylic acid 2-(3,5-dimethyl-pyrazol-1-yl)-ethyl ester], the IC50 [1] was 11.1 nM.
